# Data published in patent US6362369B1, “Phthalic acid diamide derivatives fluorine-containing aniline compounds as starting material, agricultural and horticultural insecticides, and a method for application of the insecticides” (Nihon Nohyaku Co., Ltd., priority 1997, dated 2002).
# Experiments:
# Type in all cases: in vivo
# [1] = test system: rice leafroller (Cnaphalocrocis medinalis); experiment: Insecticidal effect on rice leafroller (Test Example 3); details: 500 ppm, 25° C., humidity 70%; for Insecticidal effect, Test Example 3: rice lamina immersed; for Insecticidal effect, Test Example 3 / Insecticidal effect on rice leafroller (Test Example 3), judged grade: four days after inoculation; for Insecticidal effect on rice leafroller (Test Example 3), judged grade / Insecticidal effect (Test Example 3), judged from mortality: rice lamina dip; for Insecticidal effect on rice leafroller (Test Example 3), judged grade: third-instar larvae; for Insecticidal effect (Test Example 3), judged from mortality: 4 days after inoculation
# Outline: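 Groups of 10 third-instar larvae, in triplicate, are placed on air-dried lamina resting on wet filter paper. Incubation runs four days at 25° C with 70% humidity before survivors and dead are tallied.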
# [2] = test system: diamondback moth (Plutella xylostella); experiment: Insecticidal effect on diamondback moth (Test Example 1); details: for Insecticidal effect, Test Example 1 / Insecticidal effect (Test Example 1), judged from mortality: diamondback moth; for Insecticidal effect on diamondback moth (Test Example 1), judged grade: mortality judged according to the criterion shown in Test Example 1; for Insecticidal effect (Test Example 1), judged from mortality: judged by the criterion of Test Example 1
# Outline: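 Eggs laid by adult moths on Chinese cabbage seedlings, which were immersed in test solution, air-dried and kept at 25 °C. Hatched insects counted 6 days after immersion and mortality calculated, with effect graded by criterion; triplicate groups of 10 insects.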
# [3] = test system: common cutworm (Spodoptera Litura); experiment: Insecticidal effect on common cutworm (Test Example 2); details: 500 ppm, 25° C.; for Insecticidal effect, Test Example 2: cabbage leaf immersed; for Insecticidal effect, Test Example 2 / Insecticidal effect on common cutworm (Test Example 2), judged grade: eight days after inoculation; for Insecticidal effect on common cutworm (Test Example 2), judged grade / Insecticidal effect (Test Example 2), judged from mortality: cabbage leaf dip; for Insecticidal effect on common cutworm (Test Example 2), judged grade: second-instar larvae; for Insecticidal effect (Test Example 2), judged from mortality: 8 days after inoculation
# Outline: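 Air-dried treated material was placed in a closed dish with second-instar larvae and held at 25° C. Dead and live insects were counted eight days after inoculation, and mortality was calculated and scored against a fixed insecticidal-effect criterion. Three replicate groups of 10 insects were used.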
# [4] = third-instar larvae of rice leafroller
# [5] = judged by the mortality criterion of Test Example 1
# [6] = second-instar larvae of common cutworm
# [7] = rice leafroller third-instar larvae
# [8] = mortality judged by criterion of Test Example 1
# [9] = common cutworm second-instar larvae
compound,measurement,setting,value
Cc1cc(I)ccc1NC(=O)c1cccc(Br)c1C(=O)NC(C)C [compound 274],"Insecticidal effect, Test Example 3",[1]; [4],A (100)
same,"Insecticidal effect, Test Example 1",[2]; [5],A (100)
same,"Insecticidal effect, Test Example 2",[3]; [6],A (100)
Cc1cc(OCC(F)OC(F)(F)F)ccc1NC(=O)c1cccc([N+](=O)[O-])c1C(=O)NC(C)C (stereo not drawn) [compound 701],"Insecticidal effect on rice leafroller (Test Example 3), judged grade",[1],A (100)
same,"Insecticidal effect on diamondback moth (Test Example 1), judged grade",[2],A (100)
same,"Insecticidal effect on common cutworm (Test Example 2), judged grade",[3],A (100)
Cc1cc(OC(F)F)ccc1NC(=O)c1ccc(I)cc1C(=O)NC(C)C [compound 1204],"Insecticidal effect, Test Example 3",[1]; [7],A (100)
same,"Insecticidal effect, Test Example 1",[2]; [8],A (100)
same,"Insecticidal effect, Test Example 2",[3]; [9],A (100)
CC(C)NC(=O)c1c(Cl)cccc1C(=O)Nc1ccc(F)cc1F [compound 113],"Insecticidal effect, Test Example 3",[1]; [4],A (100)
same,"Insecticidal effect, Test Example 1",[2]; [5],A (100)
same,"Insecticidal effect, Test Example 2",[3]; [6],B (99-90)
CCCN(CCC)C(=O)c1c(I)cccc1C(=O)Nc1ccc(OC(F)(F)C(F)F)cc1C [compound 1158],"Insecticidal effect, Test Example 3",[1]; [7],A (100)
same,"Insecticidal effect, Test Example 1",[2]; [8],A (100)
same,"Insecticidal effect, Test Example 2",[3]; [9],D (79-50)
Cc1c(NC(=O)c2cccc([N+](=O)[O-])c2C(=O)NC(C)C)cccc1C(F)(F)F [compound 681],"Insecticidal effect on rice leafroller (Test Example 3), judged grade",[1],A (100)
same,"Insecticidal effect on diamondback moth (Test Example 1), judged grade",[2],A (100)
same,"Insecticidal effect on common cutworm (Test Example 2), judged grade",[3],A (100)
Cc1cc(OC(F)F)ccc1NC(=O)c1cccc(Cl)c1C(=O)NC(C)C [compound 138],"Insecticidal effect, Test Example 3",[1]; [4],A (100)
same,"Insecticidal effect, Test Example 1",[2]; [5],A (100)
same,"Insecticidal effect, Test Example 2",[3]; [6],A (100)
CCN(CC)C(=O)c1c(I)cccc1C(=O)Nc1ccc(C(F)(F)C(F)(F)F)cc1C [compound 1035],"Insecticidal effect, Test Example 3",[1]; [7],A (100)
same,"Insecticidal effect, Test Example 1",[2]; [8],A (100)
same,"Insecticidal effect, Test Example 2",[3]; [9],A (100)
CC(C)NC(=O)c1c(C(=O)Nc2ccc(OC(F)(F)C(F)OC(F)(F)C(F)(F)C(F)(F)F)cc2)cccc1[N+](=O)[O-] (stereo not drawn) [compound 619],"Insecticidal effect on rice leafroller (Test Example 3), judged grade",[1],A (100)
same,"Insecticidal effect on diamondback moth (Test Example 1), judged grade",[2],A (100)
same,"Insecticidal effect on common cutworm (Test Example 2), judged grade",[3],A (100)
Cc1cc(C(F)(F)C(F)(F)C(F)(F)F)ccc1NC(=O)c1ccccc1C(=O)NC(C)C [compound 56],"Insecticidal effect, Test Example 3",[1]; [4],A (100)
same,"Insecticidal effect, Test Example 1",[2]; [5],A (100)
same,"Insecticidal effect, Test Example 2",[3]; [6],A (100)
CC(C)NC(=O)c1c(F)cccc1C(=O)Nc1cccc(Cl)c1Cl [compound 488],"Insecticidal effect on rice leafroller (Test Example 3), judged grade",[1],A (100)
same,"Insecticidal effect on diamondback moth (Test Example 1), judged grade",[2],A (100)
same,"Insecticidal effect on common cutworm (Test Example 2), judged grade",[3],A (100)
CC(C)(C)NC(=O)c1c(F)cccc1C(=O)Nc1ccc(C(F)(F)C(F)(F)C(F)(F)F)cc1F [compound 1509],"Insecticidal effect (Test Example 3), judged from mortality",[1]; [4],A (100)
same,"Insecticidal effect (Test Example 1), judged from mortality",[2],A (100)
same,"Insecticidal effect (Test Example 2), judged from mortality",[3]; [6],C (89-80)
Cc1cc(C(F)(C(F)(F)F)C(F)(F)F)ccc1NC(=O)c1cccc(I)c1C(=O)NC(C)c1cccs1 (stereo not drawn) [compound 1800],"Insecticidal effect (Test Example 3), judged from mortality",[1]; [4],A (100)
same,"Insecticidal effect (Test Example 1), judged from mortality",[2],A (100)
same,"Insecticidal effect (Test Example 2), judged from mortality",[3]; [6],A (100)
CCN(CC)C(=O)c1c(I)cccc1C(=O)Nc1ccc(SC(F)(F)F)cc1 [compound 1128],"Insecticidal effect, Test Example 3",[1]; [7],A (100)
same,"Insecticidal effect, Test Example 1",[2]; [8],A (100)
same,"Insecticidal effect, Test Example 2",[3]; [9],A (100)
Cc1cc(Cl)ccc1NC(=O)c1cccc(I)c1C(=O)NC(C)C [compound 362],"Insecticidal effect, Test Example 3",[1]; [4],A (100)
same,"Insecticidal effect, Test Example 1",[2]; [5],A (100)
same,"Insecticidal effect, Test Example 2",[3]; [6],A (100)
CCc1cc(I)ccc1NC(=O)c1cccc(I)c1C(=O)NC(C)C [compound 951],"Insecticidal effect, Test Example 3",[1]; [7],A (100)
same,"Insecticidal effect, Test Example 1",[2]; [8],A (100)
same,"Insecticidal effect, Test Example 2",[3]; [9],A (100)
CCN(CC)C(=O)c1c(C(=O)Nc2ccc(C(F)(C(F)(F)F)C(F)(F)F)cc2C)ccc(F)c1Cl [compound 1264],"Insecticidal effect, Test Example 3",[1]; [7],A (100)
same,"Insecticidal effect, Test Example 1",[2]; [8],A (100)
same,"Insecticidal effect, Test Example 2",[3]; [9],A (100)
CC(C)NC(=O)c1cccc(Cl)c1C(=O)Nc1ccc(C(F)(C(F)(F)F)C(F)(F)F)cc1 [compound 198],"Insecticidal effect, Test Example 3",[1]; [4],A (100)
same,"Insecticidal effect, Test Example 1",[2]; [5],A (100)
same,"Insecticidal effect, Test Example 2",[3]; [6],C (89-80)
CC(C)NC(=O)c1cccc(Cl)c1C(=O)Nc1ccc(OC(F)F)cc1C(F)(F)F [compound 253],"Insecticidal effect, Test Example 3",[1]; [4],C (89-80)
same,"Insecticidal effect, Test Example 1",[2]; [5],A (100)
same,"Insecticidal effect, Test Example 2",[3]; [6],A (100)
CC(C)(C)NC(=O)c1c(I)cccc1C(=O)Nc1ccc(C(F)(F)C(F)(F)F)cc1F [compound 1427],"Insecticidal effect, Test Example 3",[1]; [7],A (100)
same,"Insecticidal effect, Test Example 1",[2]; [8],A (100)
same,"Insecticidal effect, Test Example 2",[3]; [9],A (100)
Cc1cc(C(F)(F)C(F)(F)F)ccc1NC(=O)c1cccc(C(F)(F)F)c1C(=O)NC(C)C [compound 1801],"Insecticidal effect (Test Example 3), judged from mortality",[1]; [4],A (100)
same,"Insecticidal effect (Test Example 1), judged from mortality",[2],A (100)
same,"Insecticidal effect (Test Example 2), judged from mortality",[3]; [6],A (100)
Cc1cc(Sc2ccc(Cl)cc2)ccc1NC(=O)c1cccc(F)c1C(=O)NC(C)C [compound 522],"Insecticidal effect on rice leafroller (Test Example 3), judged grade",[1],A (100)
same,"Insecticidal effect on diamondback moth (Test Example 1), judged grade",[2],A (100)
same,"Insecticidal effect on common cutworm (Test Example 2), judged grade",[3],D (79-50)
CSc1ccc(NC(=O)c2cccc(Br)c2C(=O)NC(C)C)c(C)c1 [compound 296],"Insecticidal effect, Test Example 3",[1]; [4],A (100)
same,"Insecticidal effect, Test Example 1",[2]; [5],A (100)
same,"Insecticidal effect, Test Example 2",[3]; [6],A (100)
Cc1cc(Oc2ncc(C(F)(F)F)cc2Cl)ccc1NC(=O)c1cccc(F)c1C(=O)NC(C)C [compound 524],"Insecticidal effect on rice leafroller (Test Example 3), judged grade",[1],A (100)
same,"Insecticidal effect on diamondback moth (Test Example 1), judged grade",[2],A (100)
same,"Insecticidal effect on common cutworm (Test Example 2), judged grade",[3],A (100)
Cc1cc(C(F)(F)C(F)(F)F)ccc1NC(=O)c1cccc(Cl)c1C(=O)N[C@@H](C)CO [compound 1445],"Insecticidal effect (Test Example 3), judged from mortality",[1]; [4],A (100)
same,"Insecticidal effect (Test Example 1), judged from mortality",[2],A (100)
same,"Insecticidal effect (Test Example 2), judged from mortality",[3]; [6],A (100)
